# Results taken from patent US20060069132A1, “Azolecarboxamide herbicides” (priority 2004, published 2006).
# Legend:
# velvetleaf = test: Test C pre-/postemergence herbicide test; assay type: in vivo, Abutilon theophrasti; details: for Plant response rating, Velvetleaf: preemergence
# Procedure, shortened: (§1)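 Pre- and postemergence application, solvent/surfactant formulation; post at 1- to 4-leaf stage (2–18 cm). Greenhouse 12–14 d. Visual rating vs controls, 0 = no effect, 100 = complete control.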
# soybean = test: Test C pre-/postemergence herbicide test; assay type: in vivo, Glycine max; details: for Plant response rating, Soybean / Plant response rating (0 = no effect, 100 = complete control), Soybean: preemergence; for Plant response rating (0 = no effect, 100 = complete control), Soybean: 62 g ai/ha
# Procedure, shortened: as §1
# large crabgrass = test: Test C pre-/postemergence herbicide test; assay type: in vivo, Digitaria sanguinalis; details: for Plant response rating, Crabgrass, Large / Plant response rating (0 = no effect, 100 = complete control), Crabgrass, Large: preemergence; for Plant response rating (0 = no effect, 100 = complete control), Crabgrass, Large: 62 g ai/ha
# Procedure, shortened: as §1
# corn [1] = test: Test C pre-/postemergence herbicide test; assay type: in vivo, Zea mays; details: for Plant response rating, Corn / Plant response rating (0 = no effect, 100 = complete control), Corn: preemergence; for Plant response rating (0 = no effect, 100 = complete control), Corn: 62 g ai/ha
# Procedure, shortened: as §1
# wild oat = test: Test B postemergence herbicide test; assay type: in vivo, Avena fatua; details: scale 0 (no effect) to 100 (complete control); for Oat, Wild plant response rating: postemergence, visual rating
# Procedure, shortened: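 After treating 2-leaf paddy plants or 2–18 cm postemergence plants (1 to 4 leaves) with formulated chemical, researchers kept them in a greenhouse for 13–15 days. Effects were judged visually versus controls: 0 indicates none, 100 total control.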
# corn [2] = test: Test B pre-/postemergence herbicide test; assay type: in vivo, Zea mays; details: for Corn plant response rating: postemergence, visual rating
# Procedure, shortened: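 Pre: seeds sown, then sprayed. Post: 1–4-leaf plants (2–18 cm) sprayed at the same time. Paddy: flooded, treated at 2-leaf stage. Formulation: non-phytotoxic solvent with surfactant. Greenhouse 13–15 days; visual 0–100 score relative to controls.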
# Surinam grass = test: Test C pre-/postemergence herbicide test; assay type: in vivo, Urochloa decumbens
# Procedure, shortened: as §1
# pigweed = test: Test C pre-/postemergence herbicide test; assay type: in vivo, Amaranthus retroflexus; details: for Plant response rating, Pigweed / Plant response rating (0 = no effect, 100 = complete control), Pigweed: preemergence; for Plant response rating (0 = no effect, 100 = complete control), Pigweed: 62 g ai/ha
# Procedure, shortened: as §1
# johnsongrass = test: Test C pre-/postemergence herbicide test; assay type: in vivo, Sorghum halepense; details: for Plant response rating, Johnsongrass / Plant response rating (0 = no effect, 100 = complete control), Johnsongrass: preemergence; for Plant response rating (0 = no effect, 100 = complete control), Johnsongrass: 62 g ai/ha
# Procedure, shortened: as §1
# yellow nutsedge = test: Test C pre-/postemergence herbicide test; assay type: in vivo, Cyperus esculentus; details: for Plant response rating, Nutsedge, Yellow / Plant response rating (0 = no effect, 100 = complete control), Nutsedge, Yellow: preemergence; for Plant response rating (0 = no effect, 100 = complete control), Nutsedge, Yellow: 62 g ai/ha
# Procedure, shortened: as §1
# [3] = 125 g ai/ha, scale 0 (no effect) to 100 (complete control), visual, 12 to 14 days
# [4] = 500 g ai/ha, visual rating 0-100, 0 no effect, 100 complete control, preemergence
# [5] = 125 g ai/ha, scale 0 (no effect) to 100 (complete control)
# [6] = preemergence, 125 g ai/ha, 0 to 100 scale, 0 is no effect, 100 is complete control
# [7] = 125 g ai/ha, scale 0 (no effect) to 100 (complete control), visual, 12 to 14 days, preemergence
# [8] = Preemergence, 500 g ai/ha, scale 0 to 100, 0 no effect, 100 complete control
# [9] = 250 g ai/ha, scale 0 to 100 (0 no effect, 100 complete control), visual, 12 to 14 days
Structure (SMILES),"Plant response rating, Velvetleaf (velvetleaf; [3])","Plant response rating (0 = no effect, 100 = complete control), Soybean (soybean)","Plant response rating, Soybean (soybean; [3])","Plant response rating (0 = no effect, 100 = complete control), Crabgrass, Large (large crabgrass)","Plant response rating, Crabgrass, Large (large crabgrass; [3])","Plant response rating (0 = no effect, 100 = complete control), Corn (corn [1])","Plant response rating, Corn (corn [1]; [3])","Oat, Wild plant response rating (wild oat; 125 g ai/ha)","Plant response rating, Corn (corn [2]; [4])",Corn plant response rating (corn [2]; [5]),"Plant response rating, Corn (corn [2]; [6])","Plant response rating, Surinam Grass (Surinam grass; [7])","Plant response rating (0 = no effect, 100 = complete control), Pigweed (pigweed)","Plant response rating, Pigweed (pigweed; [3])","Plant response rating (0 = no effect, 100 = complete control), Johnsongrass (johnsongrass)","Plant response rating, Johnsongrass (johnsongrass; [3])","Plant response rating (0 = no effect, 100 = complete control), Nutsedge, Yellow (yellow nutsedge)","Plant response rating, Nutsedge, Yellow (yellow nutsedge; [3])",further results
CCC(=NO)c1cccc(NC(=O)c2cc(C(C)(C)C)nn2C)c1 [Compound 118],40,0,10,70,100,0,10,20,10,20,0,20,70,90,40,100,0,0,"Plant response rating, Velvetleaf (velvetleaf; 31 g ai/ha, scale 0 to 100): 0; Plant response rating, Soybean (soybean; 31 g ai/ha, scale 0 to 100): 0; Plant response rating, Crabgrass, Large (large crabgrass; 31 g ai/ha, scale 0 to 100): 10; Plant response rating, Corn (corn [1]; 31 g ai/ha, scale 0 to 100): 0; Plant response rating, Oat, Wild (wild oat; Postemergence, 500 g ai/ha, visual rating after 13 to 15 days): 20; Plant response rating, Corn (corn [2]; Postemergence, 500 g ai/ha, visual rating after 13 to 15 days, scale 0 (no effect) to 100 (complete control)): 40; Plant response rating, Surinam Grass (Surinam grass; 31 g ai/ha, preemergence, scale 0 to 100): 20; Plant response rating, Pigweed (pigweed; 31 g ai/ha, scale 0 to 100): 20; Plant response rating, Johnsongrass (johnsongrass; 31 g ai/ha, scale 0 to 100): 30; Plant response rating, Nutsedge, Yellow (yellow nutsedge; 16 g ai/ha, scale 0 to 100, last section of Table C): 0; Plant response rating, Nutsedge, Yellow (yellow nutsedge; 31 g ai/ha, scale 0 to 100): 0"
CCn1nc(C(C)(C)C)cc1C(=O)Nc1cccc(S(=O)(=O)C(F)(F)F)c1 [Compound 134],90,0,0,65,95,0,0,30,10,20,0,15,95,95,0,40,0,0,"Velvetleaf plant response rating (velvetleaf; [8]): 100; Soybean plant response rating (soybean; [8]): 35; Plant response rating, Crabgrass, Large (large crabgrass; [9]): 95; Crabgrass, Large plant response rating (large crabgrass; [8]): 100; Plant response rating, Corn (corn [1]; [9]): 0; Corn plant response rating (corn [1]; [8]): 60; Oat, Wild plant response rating (wild oat; 500 g ai/ha): 30; Corn plant response rating (corn [2]; 500 g ai/ha, scale 0 (no effect) to 100 (complete control)): 30; Plant response rating (0 = no effect, 100 = complete control), Surinam Grass (Surinam grass; 62 g ai/ha, preemergence): 0; Surinam Grass plant response rating (Surinam grass; [8]): 75; Pigweed plant response rating (pigweed; [8]): 100; Johnsongrass plant response rating (johnsongrass; [8]): 65; Nutsedge, Yellow plant response rating (yellow nutsedge; [8]): 0"
